In patent US12202828B2, “Bicyclic heterocycle compounds and their uses in therapy” (ASTEX THERAPEUTICS LIMITED, priority 2013, dated 2025):
Several values for one entry are separate records, joined by “and”; a condition that tells them apart may be missing. Identical values can stand only once. Counter-ions that a name gives are not always drawn.

Assays:
[1] = molecular target: T1, hERG ion channel (Homo sapiens, UniProt Q12809); experiment: Population Patch Clamp (PPC) hERG assay in CHO K1 cells; type: cell-based
T1 construct: expressed in transfected cells; host or cells: CHO K1
Experimental: Inhibition of the hERG channel was measured by automated patch clamp assay in CHO K1 cells, stably transfected with the hERG ion channel. PPC measurements were performed using an IonWorks Quattro instrument (Molecular Devices Corporation, Union City, CA) using a 384 well PatchPlate (Molecular Devices Corporation) with 64 apertures per well. Each concentration of test compound was tested in duplicate wells. Amphotericin B was used to obtain electrical access to the cell interior at a final concentration of 200 μg/mL. Human ether-à-gogo related gene (hERG) currents were measured with a prepulse to +40 mV (2 s) from the holding potential of −80 mV, followed by a step to −50 mV (2 s) to elicit the deactivating tail currents, before returning to the holding potential for 1s. Compounds were incubated for 600s between the pre- and post-compound reads. The external recording solution used was 130 mM Na Gluconate, 20 mM NaCl, 4 mM KCl, 1 mM MgCl2, 1.8 mM CaCl2, 10 mM Hepes, 5 mM Glucose, pH to 7.3 with NaOH. All data were filtered for seal quality, seal drop, and current amplitude. The maximum current amplitude of the 3rd pulse tail current was calculated before (Pre) and after (Post) compound addition and the amount of block assessed by dividing the Post-compound current amplitude by the Pre-compound current amplitude.

[2] = molecular target: T2, XIAP-Caspase-9 in HEK293-XIAP-Caspase-9 cells (Homo sapiens, UniProt P98170); experiment: HEK293-XIAP-Caspase-9 immunoprecipitation (IP) MSD assay; type: cell-based; conditions: compound 2 h at 37° C.; read-out: HEK293-X-C9 IP
T2 construct: FLAG; expressed in transfected cells
Experimental: Stable HEK293-XIAP-Caspase-9 cells were plated out into 96-well plates [200 μl/well at 1×10^6 cells/mL in cultured complete medium (DMEM+10% FBS+0.5 mg/mL Geneticin (Invitrogen)] and left overnight at 37° C. to recover. Compounds were added to duplicate wells in 0.1% DMSO for 2 h at 37° C. Cells were lysed in 50 μl 1×MSD lysis buffer (1% Triton X-100 in 20 mM Tris·Cl (pH 7.6), 150 mM NaCl including protease inhibitors) for 20 min rocking at room temperature. Streptavidin high bind MSD plate (L15SB-2) were coated with biotinylated anti-FLAG M2 antibody (Sigma F9291) at 25 μl/well with a 5 μg/mL dilution of antibody in PBS for 1 h, shaking; followed by blocking for 1 h with 150 μl 3% BSA/TBST. Cell lysate (25 μl) was added to the 96-well anti-FLAG coated MSD plate and placed on shaker for 4 h at room temperature. […] Plates were washed 4 times with 150 μl TBST, and 150 μl/well 1×MSD read buffer (R92TC-2) added before reading each plate.
EC50 values were determined from dose-response plots using nonlinear least-squares analysis.

T1 sequence (Q12809 whole entry): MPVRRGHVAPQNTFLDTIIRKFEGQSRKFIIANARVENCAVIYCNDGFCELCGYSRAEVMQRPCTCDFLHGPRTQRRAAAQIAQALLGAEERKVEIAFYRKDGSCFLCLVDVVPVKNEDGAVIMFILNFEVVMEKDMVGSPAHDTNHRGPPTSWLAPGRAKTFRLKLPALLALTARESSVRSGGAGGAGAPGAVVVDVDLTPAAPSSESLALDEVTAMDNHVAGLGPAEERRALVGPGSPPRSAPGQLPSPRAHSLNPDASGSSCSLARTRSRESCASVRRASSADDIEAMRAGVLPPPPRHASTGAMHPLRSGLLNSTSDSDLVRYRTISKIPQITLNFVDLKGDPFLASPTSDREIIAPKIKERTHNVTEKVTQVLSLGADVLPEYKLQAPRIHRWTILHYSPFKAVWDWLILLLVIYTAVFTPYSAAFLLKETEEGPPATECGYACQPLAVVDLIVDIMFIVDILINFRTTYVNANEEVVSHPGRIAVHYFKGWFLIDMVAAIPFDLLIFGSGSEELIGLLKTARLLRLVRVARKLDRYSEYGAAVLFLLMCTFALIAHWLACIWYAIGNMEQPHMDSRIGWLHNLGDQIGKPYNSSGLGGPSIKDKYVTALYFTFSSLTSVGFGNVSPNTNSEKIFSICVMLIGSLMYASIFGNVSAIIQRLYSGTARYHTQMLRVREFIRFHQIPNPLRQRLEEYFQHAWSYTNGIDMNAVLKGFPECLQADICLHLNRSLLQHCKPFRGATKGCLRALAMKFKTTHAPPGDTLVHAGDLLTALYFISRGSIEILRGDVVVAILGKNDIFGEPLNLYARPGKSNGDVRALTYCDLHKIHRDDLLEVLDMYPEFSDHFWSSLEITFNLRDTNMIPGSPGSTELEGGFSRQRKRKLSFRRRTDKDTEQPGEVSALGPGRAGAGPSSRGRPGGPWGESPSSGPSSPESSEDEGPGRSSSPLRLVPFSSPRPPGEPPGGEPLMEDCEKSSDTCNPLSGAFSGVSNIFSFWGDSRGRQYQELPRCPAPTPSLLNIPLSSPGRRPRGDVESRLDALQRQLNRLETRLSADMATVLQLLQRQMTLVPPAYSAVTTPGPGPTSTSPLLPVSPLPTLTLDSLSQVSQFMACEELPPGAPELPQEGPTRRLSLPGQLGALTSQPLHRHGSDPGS
T2 sequence (P98170 whole entry): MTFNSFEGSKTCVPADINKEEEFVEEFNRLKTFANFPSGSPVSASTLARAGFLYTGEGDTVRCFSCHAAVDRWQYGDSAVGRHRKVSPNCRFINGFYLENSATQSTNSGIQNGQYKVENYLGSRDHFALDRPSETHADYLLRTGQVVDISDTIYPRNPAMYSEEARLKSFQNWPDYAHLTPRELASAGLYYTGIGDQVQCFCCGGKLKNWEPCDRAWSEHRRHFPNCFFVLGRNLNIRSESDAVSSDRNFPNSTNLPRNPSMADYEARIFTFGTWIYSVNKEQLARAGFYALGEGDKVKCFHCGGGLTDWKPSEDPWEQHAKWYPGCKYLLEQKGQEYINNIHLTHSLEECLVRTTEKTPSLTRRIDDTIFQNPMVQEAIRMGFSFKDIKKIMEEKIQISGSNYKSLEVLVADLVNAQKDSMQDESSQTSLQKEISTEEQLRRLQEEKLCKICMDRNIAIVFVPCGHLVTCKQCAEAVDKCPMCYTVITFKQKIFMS

C[C@@H]1CN(CC(=O)N2CC(C)(C)c3nc(C(O)CO)c(Cc4ccc(F)cc4)cc32)[C@@H](CN2CCOC[C@H]2C)CN1 (single isomer, unassigned) [Example 13, 1-[5-((R or S)-1,2-Dihydroxyethyl)-6-[(4-fluorophenyl)methyl]-3,3-dimethyl-1H,2H,3H-pyrrolo [3,2-b]pyridin-1-yl]-2-[(2R,5R)-5-methyl-2-{[(3R)-3-methylmorpholin-4-yl]methyl}piperazin-1-yl] ethan-1-one dihydrochloride]
hERG PPC (PI) ([1]; @ 300 μM, dihydrochloride): 46% @ 300 | EC50 [2]: 4.4 nM

C[C@@H]1CN(CC(=O)N2CC(C)(C)c3nc(C(O)CO)c(Cc4ccc(F)cc4)cc32)[C@@H](CN2CCOC[C@H]2C)CN1 (single isomer, unassigned) [Example 14, 1-[5-((R or S)-1,2-Dihydroxyethyl)-6-[(4-fluorophenyl)methyl]-3,3-dimethyl-1H,2H,3H-pyrrolo [3,2-b]pyridin-1-yl]-2-[(2R,5R)-5-methyl-2-{[(3R)-3-methylmorpholin-4-yl]methyl}piperazin-1-yl] ethan-1-one dihydrochloride]
hERG PPC (PI) ([1]; @ 300 μM, dihydrochloride): 58% @ 300 | EC50 [2]: 13 nM

C[C@@H]1CN(CC(=O)N2CC(C)(C)c3nc(C(O)CO)c(Cc4ccc(F)cc4)cc32)[C@@H](CN2[C@H](C)COC[C@H]2C)CN1 (single isomer, unassigned) [Example 21, 1-[5-((R or S)-1,2-Dihydroxyethyl)-6-[(4-fluorophenyl)methyl]-3,3-dimethyl-1H,2H,3H-pyrrolo[3,2-b]pyridin-1-yl]-2-[(2R,5R)-2-{[(3R,5R)-3,5-dimethylmorpholin-4-yl]methyl}-5-methylpiperazin-1-yl] ethan-1-one dihydrochloride]
hERG PPC (PI) ([1]; @ 100 μM): 35% @ 100 | EC50 [2]: 2.1 nM

COCC(O)c1nc2c(cc1Cc1ccc(F)cc1)N(C(=O)CN1C[C@@H](C)NC[C@@H]1CN1CCOC[C@H]1C)CC2(C)C (single isomer, unassigned) [Example 26, 1-{6-[(4-Fluorophenyl)methyl]-5-((R or S)-1-hydroxy-2-methoxyethyl)-3,3-dimethyl-1H,2H,3H-pyrrolo[3,2-b]pyridin-1-yl}-2-[(2R,5R)-5-methyl-2-{[(3R)-3-methylmorpholin-4-yl]methyl}piperazin-1-yl] ethan-1-one trihydrochloride]
hERG PPC (PI) ([1]; @ 31.3 μM): 41% @ 31.3 | EC50 [2]: 12 nM

COC(CO)c1nc2c(cc1Cc1ccc(F)cc1)N(C(=O)CN1C[C@@H](C)NC[C@@H]1CN1CCOC[C@H]1C)CC2(C)C (single isomer, unassigned) [Example 27, 1-{6-[(4-Fluorophenyl)methyl]-5-((R or S)-2-hydroxy-1-methoxyethyl)-3,3-dimethyl-1H,2H,3H-pyrrolo[3,2-b]pyridin-1-yl}-2-[(2R,5R)-5-methyl-2-{[(3R)-3-methylmorpholin-4-yl]methyl}piperazin-1-yl] ethan-1-one trihydrochloride]
hERG PPC (PI) ([1]; @ 1000 μM): 55% @ 1000 | EC50 [2]: 6 nM and 9.9 nM

COCC(O)c1nc2c(cc1Cc1ccc(F)cc1)N(C(=O)CN1C[C@@H](C)NC[C@@H]1CN1CCOC[C@H]1C)CC2(C)C (single isomer, unassigned) [Example 28, 1-{6-[(4-Fluorophenyl)methyl]-5-((R or S)-1-hydroxy-2-methoxyethyl)-3,3-dimethyl-1H,2H,3H-pyrrolo[3,2-b]pyridin-1-yl}-2-[(2R,5R)-5-methyl-2-{[(3R)-3-methylmorpholin-4-yl]methyl}piperazin-1-yl] ethan-1-one trihydrochloride]
hERG PPC (PI) ([1]; @ 125 μM): 45% @ 125 | EC50 [2]: 4.4 nM

COC(CO)c1nc2c(cc1Cc1ccc(F)cc1)N(C(=O)CN1C[C@@H](C)NC[C@@H]1CN1CCOC[C@H]1C)CC2(C)C (single isomer, unassigned) [Example 29, 1-{6-[(4-Fluorophenyl)methyl]-5-((R or S)-2-hydroxy-1-methoxyethyl)-3,3-dimethyl-1H,2H,3H-pyrrolo[3,2-b]pyridin-1-yl}-2-[(2R,5R)-5-methyl-2-{[(3R)-3-methylmorpholin-4-yl]methyl}piperazin-1-yl] ethan-1-one]
hERG PPC (PI) ([1]; @ 500 μM): 53% @ 500 | EC50 [2]: 13 nM

C[C@@H]1CN(CC(=O)N2CC(C)(C)c3nc(CO)c(Cc4ccccc4F)cc32)[C@@H](CN2CCOC[C@H]2C)CN1 [Example 4, 1-{6-[(2-Fluorophenyl)methyl]-5-(hydroxymethyl)-3,3-dimethyl-1H,2H,3H-pyrrolo[3,2-b]pyridin-1-yl}-2-[(2R,5R)-5-methyl-2-{[(3R)-3-methylmorpholin-4-yl]methyl}piperazin-1-yl] ethan-1-one dihydrochloride]
hERG PPC (PI) ([1]; @ 30 μM): 47% @ 30 | EC50 [2]: 2.6 nM

C[C@@H]1CN(CC(=O)N2CC(C)(C)c3[nH]c(=O)c(Cc4ccc(F)cc4)cc32)[C@@H](CN2CCOC[C@H]2C)CN1 [Example 5, 6-[(4-Fluorophenyl)methyl]-3,3-dimethyl-1-{2-[(2R,5R)-5-methyl-2-{[(3R)-3-methylmorpholin-4-yl]methyl}piperazin-1-yl]acetyl}-1H,2H,3H,4H,5H-pyrrolo[3,2-b]pyridin-5-one dihydrochloride]
hERG PPC (PI) ([1]; @ 300 μM): 42% @ 300 | EC50 [2]: 5.3 nM

C[C@@H]1CN(CC(=O)N2CC(C)(C)c3c2cc(Cc2ccc(F)cc2)c(=O)n3C)[C@@H](CN2CCOC[C@H]2C)CN1 [Example 6, 6-[(4-Fluorophenyl)methyl]-3,3,4-trimethyl-1-{2-[(2R,5R)-5-methyl-2-{[(3R)-3-methylmorpholin-4-yl]methyl}piperazin-1-yl]acetyl}-1H,2H,3H,4H,5H-pyrrolo[3,2-b]pyridin-5-one dihydrochloride]
hERG PPC (PI) ([1]; @ 250 μM): 56% @ 250 | EC50 [2]: 2 nM

C[C@@H]1CN(CC(=O)N2CC(C)(C)c3[nH]c(=O)c(Cc4ccc(F)cc4F)cc32)[C@@H](CN2[C@H](C)COC[C@H]2C)CN1 [Example 7, 6-[(2,4-Difluorophenyl)methyl]-1-{2-[(2R,5R)-2-{[(3R,5R)-3,5-dimethylmorpholin-4-yl]methyl}-5-methylpiperazin-1-yl]acetyl}-3,3-dimethyl-1H,2H,3H,4H,5H-pyrrolo[3,2-b]pyridin-5-one dihydrochloride]
hERG PPC (PI) ([1]; @ 100 μM): 33% @ 100 | EC50 [2]: 1.2 nM

C[C@@H]1CN(CC(=O)N2CC(C)(C)c3[nH]c(=O)c(Cc4ccc(F)cc4F)cc32)[C@@H](CN2CCOC[C@H]2C)CN1 [Example 8, 6-[(2,4-Difluorophenyl)methyl]-3,3-dimethyl-1-{2-[(2R,5R)-5-methyl-2-{[(3R)-3-methylmorpholin-4-yl]methyl}piperazin-1-yl]acetyl}-1H,2H,3H,4H,5H-pyrrolo[3,2-b]pyridin-5-one dihydrochloride]
hERG PPC (PI) ([1]; @ 300 μM): 39% @ 300 | EC50 [2]: 5.4 nM

C[C@@H]1CN(CC(=O)N2CC(C)(C)c3c2cc(Cc2ccccc2F)c(=O)n3C)[C@@H](CN2CCOC[C@H]2C)CN1 [Example 9, 6-[(2-Fluorophenyl)methyl]-3,3,4-trimethyl-1-{2-[(2R,5R)-5-methyl-2-{[(3R)-3-methylmorpholin-4-yl]methyl}piperazin-1-yl]acetyl}-1H,2H,3H,4H,5H-pyrrolo[3,2-b]pyridin-5-one dihydrochloride]
hERG PPC (PI) ([1]; @ 300 μM): 50% @ 300 | EC50 [2]: 3 nM

C[C@@H]1CN(CC(=O)N2CC(C)(C)c3nc(CO)c(Cc4ccc(F)cc4F)cc32)[C@@H](CN2CCOC[C@H]2C)CN1 [Example 11, 1-{6-[(2,4-Difluorophenyl)methyl]-5-(hydroxymethyl)-3,3-dimethyl-1H,2H,3H-pyrrolo[3,2-b]pyridin-1-yl}-2-[(2R,5R)-5-methyl-2-{[(3R)-3-methylmorpholin-4-yl]methyl}piperazin-1-yl] ethan-1-one dihydrochloride]
IC50 ([1]; CHO K1 cells stably transfected with hERG): 51 µM | EC50 [2]: 1.1 nM

C[C@@H]1CN(CC(=O)N2CC(C)(C)c3c2cc(Cc2ccc(F)cc2F)c(=O)n3C)[C@@H](CN2C[C@H](C)OC[C@H]2C)CN1 [Example 25, 6-[(2,4-Difluorophenyl)methyl]-1-{2-[(2R,5R)-2-{[(2S,5R)-2,5-dimethylmorpholin-4-yl]methyl}-5-methylpiperazin-1-yl]acetyl}-3,3,4-trimethyl-1H,2H,3H,4H,5H-pyrrolo[3,2-b]pyridin-5-one dihydrochloride]
EC50 [2]: 2.7 nM
